Laboratory results as given in patent US7468384B2, “Microbicidal composition” (Rohm and Haas Company, priority 2004, dated 2008).

Columns and labels:
Format in all cases: cell-based
[1] = test system: Candida albicans (C. albicans—ATCC 10231); test: Synergy test, microtiter plate high resolution MIC assay, yeast; settings: synergy index BIT + glutaraldehyde; C. albicans 10231, PDB, 24 hours
Method in brief: (§1)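 Values derive from Kull synergy index (Qa/QA + Qb/QB, ppm MIC endpoints, alone vs in mixture). Endpoints from high-resolution microtiter MICs spanning 2–10,000 ppm; bacterium ~5×10^6/mL in TSB or M9GY, yeast and mold 5×10^5/mL in PDB.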

[2] = test system: Pseudomonas aeruginosa (P. aeruginosa—ATCC #15442); test: Synergy test, microtiter plate high resolution MIC assay, bacterium; set-up: key to SI (calculated synergy index) / SI (synergy index): SI = Qa/QA + Qb/QB (mixture vs. alone end-point concentrations); settings: P. aeruginosa 15442, M9GY; for Qa: BIT concentration giving end point (MIC); for Qa (BIT at end point, MIC): alone where Qb = 0
Method in brief: as §1

[3] = test system: Escherichia coli (E. coli—ATCC #8739); test: as above; settings: E. coli 8739, M9GY; for Qa: BIT concentration giving end point (MIC); for Qa (BIT at end point, MIC): alone where Qb = 0
Method in brief: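 High-resolution MICs were found by adding microbicide to one microtitre column and making ten-fold dilutions with an automated liquid handler, giving endpoints from 2 ppm to 10,000 ppm active ingredient. The MIC is the lowest concentration that prevents growth. E. coli 8739, at roughly 5×10^6 cells per mL, grew in glucose/yeast-extract-supplemented minimal salt medium (M9GY). Values above one indicate antagonism.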

[4] = alone or mixed with Imidalozidinyl urea, 48 hours
[5] = alone or mixed with caprylyl glycol, 24 hours
[6] = alone or mixed with diazolidinyl urea, 48 hours
[7] = Table 25, BIT with sodium dehydroacetic acid, 24 hours
[8] = Table 26, BIT with sodium benzoate, 24 hours
[9] = synergy index BIT + Imidalozidinyl urea, 48 hours
[10] = synergy index BIT + caprylyl glycol, 24 hours
[11] = synergy index BIT + diazolidinyl urea, 48 hours

O=c1[nH]sc2ccccc12 [BIT, 1,2-benzisothiazolin-3-one] gave an SI [1] of 1.00, a Qa ([2]; alone or mixed with 2,2′-dithiobis(N-methylbenzamide), 48 hours) of 100 ppm and a Qa [2, 4] of 100 ppm. The Qa ([2]; alone or mixed with benzyl alcohol, 48 hours) was 100 ppm, the Qa [2, 5] was 100 ppm and the Qa ([2]; alone or mixed with chlorphenesin, 72 hours) was 100 ppm. It also gave a Qa [2, 6] of 100 ppm, a Qa ([2]; alone or mixed with ethylparaben, 48 hours) of 100 ppm and a Qa ([2]; alone or mixed with glutaraldehyde, 48 hours) of 60 ppm. The Qa ([2]; alone or mixed with methylparaben, 48 hours) was 100 ppm, the Qa ([2]; alone or mixed with phenoxyethanol, 48 hours) was 100 ppm and the “SI (calculated synergy index)” value ([2]; Table 8, 48 hours) was 1.00. The “Qa: end-point activity (MIC) of BIT in the mixture (BIT alone, QA, where Qb = 0)” value ([2]; Table 8, 48 hours, B = Benzalkonium chloride) was 100 ppm, the “SI (calculated synergy index)” value ([2]; Table 9, 48 hours) was 1.00 and the “Qa: end-point activity (MIC) of BIT in the mixture (BIT alone, QA, where Qb = 0)” value ([2]; Table 9, 48 hours, B = Benzethonium chloride) was 100 ppm. The “Qa (BIT at end point, MIC)” value ([2]; Table 21, BIT with Linoleamidopropyl PG-dimonium chloride phosphate, 48 hours) was 100 ppm, the “SI (synergy index)” value ([2]; Table 21, 48 hours) was 1.00 and the “Qa (BIT at end point, MIC)” value ([2]; Table 22, BIT with Cocamidopropyl PG-dimonium chloride phosphate, 72 hours) was 100 ppm. The “SI (synergy index)” value ([2]; Table 22, 72 hours) was 1.00, the “Qa (BIT at end point, MIC)” value ([2]; Table 23, BIT with propylparaben, 24 hours) was 80 ppm and the “SI (synergy index)” value ([2]; Table 23, 24 hours) was 1.33. For the same compound, the “Qa (BIT at end point, MIC)” value ([2]; Table 24, BIT with Cis-1-(3-chloroallyl)-3,5,7-triaza-1-azoniaadamantane chloride, 24 hours) was 60 ppm, the “SI (synergy index)” value ([2]; Table 24, 24 hours) was 1.00 and the “Qa (BIT at end point, MIC)” value [2, 7] was 60 ppm. For the same compound, the “SI (synergy index)” value ([2]; Table 25, 24 hours) was 1.00, the “Qa (BIT at end point, MIC)” value [2, 8] was 60 ppm and the “SI (synergy index)” value ([2]; Table 26, 24 hours) was 1.00. For the same compound, the “Qa (BIT at end point, MIC)” value ([2]; Table 27, BIT with Sodium hydroxymethylglycinate, 24 hours) was 60 ppm, the “SI (synergy index)” value ([2]; Table 27, 24 hours) was 1.00 and the “Qa (BIT at end point, MIC)” value ([2]; Table 28, BIT with zinc pyrithione, 48 hours) was 100 ppm. For the same compound, the “SI (synergy index)” value ([2]; Table 28, 48 hours) was 1.00, the SI ([2]; synergy index BIT + 2,2′-dithiobis(N-methylbenzamide), 48 hours) was 1.00 and the SI [2, 9] was 1.00. The SI ([2]; synergy index BIT + benzyl alcohol, 48 hours) was 1.00, the SI [2, 10] was 1.00 and the SI ([2]; synergy index BIT + chlorphenesin, 72 hours) was 1.00. The SI [2, 11] was 1.00, the SI ([2]; synergy index BIT + ethylparaben, 48 hours) was 1.00 and the SI ([2]; synergy index BIT + glutaraldehyde, 48 hours) was 1.00. The SI ([2]; synergy index BIT + methylparaben, 48 hours) was 1.00, the SI ([2]; synergy index BIT + phenoxyethanol, 48 hours) was 1.00 and the Qa [3, 4] was 7.5 ppm. It also gave a Qa ([3]; alone or mixed with benzyl alcohol, 24 hours) of 7.5 ppm, a Qa [3, 5] of 7.5 ppm and a Qa [3, 6] of 8 ppm. For the same compound, the Qa ([3]; alone or mixed with glutaraldehyde, 24 hours) was 10 ppm, the “Qa (BIT at end point, MIC)” value ([3]; Table 24, BIT with Cis-1-(3-chloroallyl)-3,5,7-triaza-1-azoniaadamantane chloride, 48 hours) was 10 ppm and the “SI (synergy index)” value ([3]; Table 24, 48 hours) was 1.00. For the same compound, the “Qa (BIT at end point, MIC)” value [3, 7] was 7.5 ppm, the “SI (synergy index)” value ([3]; Table 25, 24 hours) was 1.00 and the “Qa (BIT at end point, MIC)” value [3, 8] was 7.5 ppm. The “SI (synergy index)” value ([3]; Table 26, 24 hours) was 1.00, the SI [3, 9] was 1.00 and the SI ([3]; synergy index BIT + benzyl alcohol, 24 hours) was 1.00. The SI [3, 10] was 1.00, the SI [3, 11] was 1.00 and the SI ([3]; synergy index BIT + glutaraldehyde, 24 hours) was 1.00.
